Measurements reported in US5521315A, “Olefin substituted long chain compounds” (priority 1993, dated 1996).
Where “and” joins values, the source holds several entries; their conditions need not be identical. Identical values can stand only once.

How the values were obtained:
[1] = test system: CMV promoter activity in transformed (adenovirus) cells; test: CMV promoter assay (gene transcription and translation; cytotoxicity in transformed cells); format: cell-based
Description: (§1) FIG. 18 illustrates data regarding proliferative activity of various inventive compounds for inducting CMV promoter activity. The CMV promoter assay measures gene transcription and translation activity wherein any active compounds will have cytotoxic activity to inhibit cellular protein synthesis machinery in transformed (adenovirus) cells.
as §1, with “This example” for “FIG. 18”

[2] = test system: mast cell degranulation; test: Serotonin release assay (inhibition of mast cell degranulation); format: cell-based; design: INCORP / TOTAL: unit not given here; conditions: 50 μM; for RELEASE-SPONT: average corrected for spontaneous release; for AVERAGE % RELEASE: average of duplicates; for inhibition at 50 µM: Mast cell; for % RELEASE / INCORP / RELEASE / RELEASE X2 / TOTAL: duplicate wells
Description: A serotonin release assay is utilized to study the utility of the inventive compounds for treatment of asthma and allergy. […] This assay measures mast cell degranulation, which is an early phase reaction to allergen challenge. Mast cells grown in tissue culture are first loaded with ^3 H serotonin, which is incorporated into the granules in the cells. The mast cells are sensitized with antigen specific monoclonal IgE, and then triggered to degranulate with the specific antigen (dinitorphenolbound to BSA (DNP)). When the cells degranulate, ^3 H Serotonin is released into the medium, and can be measured directly. The ability of the inventive compounds to inhibit the degranulation response is determined by the decrease in ^3 H Serotonin released in the presence of drug and is represented as % INHIBITION.
Specifically, the serotonin release assay seeds 2×10^5 cells in 0.5 ml medium in duplicate for spontaneous release, IgE+DNP, IgE+DNP+EtOH (vehicle control), and inventive compounds. […] The cells are incubated for 18 hours at 37° C. in 5% CO2, washed twice with 0.5 ml Isotonic Buffer (25 mM disodium PIPES pH 7.1,100 mM NaCl, 5 mM KCl, 5 mM glucose, 0.4 mM MgCl2, 1mM CaCl2, 0.1% BSA), and sterile filtered. 250 μl Isotonic Buffer is added per well and the plates are equilibrated in an incubator for about 10 min. Drug is added and cells are activated with 40 ng/ml DNP-BSA (1 mg/ml Diluted 1:200 in Isotonic Buffer) for 45 minutes using 2 μl/250 μl. Spontaneous release is determined in incubated cells with 250 μl Isotonic Buffer for 45 minutes and the reaction is stopped by removing supernatant and centrifuging at ~4000 rpm in microfuge for 15 seconds to remove any detached cells. Released radiolableled serotonin is counted. To determine amount of ^3 H-serotonin incorporated into the cells, (a) remove Isotonic Buffer and lyse cells by adding 250 μl 1% Triton-X100 in PBS, (b) add to 5 ml scintillation fluid, (c) wash 2× with Triton/PBS, and (d) add washes to scintillation tube. Percent serotonin release is calculated by dividing the amount of released serotonin by the sum of incorporated plus released serotonin and correcting for spontaneous released serotonin. Compound inhibition is calculated by dividing the percent serotonin release in the presence of a compound by the percent serotonin release in the absence of the compound.
This assay is described above and provides an in vitro model for an allergy and asthma therapeutic product.

[3] = test system: transformed cells (Ras 3T3) and normal 3T3 cells; test: Cytotoxicity in transformed cells (Ras 3T3) versus normal 3T3 cells; format: cell-based; conditions: LD50 comparison; FIG. 17
Procedure: Each inventive compound is investigated for cytotoxicity to determine appropriate doses for biological activity assays and to prevent cytotoxic reactions in in vitro assays when characterizing activity. Cells (e.g., NIH-3T3, Ras transformed 3T3 cells, malignant melanoma LD2 cells, etc.) are added to microtiter plates and drug is added about two days after plating. Cell viability is determined using a fluorescent viability stain (e.g., 2',7'-bis-(2-carboroxyethyl)-5-(and -6)-carboxyfluorescein acetoxymethyl ester, BCECF excitation 488 nm and emission 525 nm) 24, 48 or 72 hours after addition of the drug.
This example illustrates a comparison of cytotoxicity determinations for CT1534 and CT1539 in transformed cells (Ras 3T3) and in normal 3T3 cells to determine the in vitro LD50 value in both cell types and to look for differential cytotoxicity effects between the cell types.

[4] = test system: Saccharomyces cervisiae; test: Yeast growth inhibition assay; format: cell-based; conditions: FIG. 14
Procedure: Some of the inventive compounds are effective for inhibiting yeast cell growth. This effect can be assayed by measuring growth of the yeast strain Saccharomyces cervisiae. A control yeast stain Saccharomyces cervisiae (BIO 101, Inc.) is grown overnight in YEPD broth at 30° C. A one to hundred dilution of the yeast culture is made with fresh YEPD broth. 100 μl Aliquots of the diluted culture are distributed into 96-wells titer plates. 100 μl Aliquots of drug is diluted in YEPD broth were then added to the wells. The titer plates are incubated at room temperature with continuous shaking. The cell density of the individual cultures are determined using a microplate reader with a A630 filter. The A630 of the individual yeast cultures are compared to control samples without adding drug. This assay is predictive of direct antimicrobial, particularly yeast and fungal, activity of the drugs studied.
This example illustrates the effects of CT2501R (a reference compound), CT2536R, CT2536S, CT1596R, and CT1596S of yeast growth (Saccromyces cerevasie) in the presence or absence of drug. These assays measure anti-yeast and anti-fungal activity of the drugs tested. […] Therefore either the R enantiomer, the S enantiomer or a racemic mixture of CT2536 are potential topical or systemic antimicrobial drugs.

[5] = test system: murine thymocyte; test: Murine thymocyte stimulated by ConA and IL-2 (T cell immune suppression); format: cell-based; conditions: FIGS. 8 and 9
Procedure: A thymocyte costimulator assay is conducted to evaluate the inventive compounds to inhibit activation and proliferation of thymocytes caused by stimulation with Con A and interleukin-1 (IL-1), or […]. Thymuses are obtained from mice (e.g., female Balb/C mice) and the thymuses are removed and dissociated into culture media (e.g., RPMI 1640 without serum supplementation). The dissociated thymus tissue and cell suspension is transferred to centrifuge tubes and allowed to settle, washed with HBSS and resuspended in serum-supplemented culture media (e.g., RPMI 1640 with 10% fetal calf serum). Any contaminating red cells are lysed, and viable cells are resuspended and counted. Thymocytes are plated (e.g., 96-well plates at a density of 2×10^5 cells/well) and a stimulating agent, such as Con A, IL-1 (e.g., IL-1α) or IL-2 is added to the well. The cells are incubated for 4 days at 37° C. On the fourth day, the cells are pulsed with tritiated thymidine and cell proliferation determined. Inventive compounds are added at the time of stimulating agent addition.
A third assay measures an ability of an inventive compound to inhibit IL-2-induced proliferation of murine thymocytes. Thymus glands are obtained from 4-6 week old mice and plated as a single cell suspension into flat bottomed wells in RPMI 1640 medium supplemented with 10% fetal calf serum. The inventive compounds are added to appropriate wells and the cells are incubated for 1-2 hrs. Concanavilin A (ConA, 0.25 mg/ml) and […] (20 ng/ml) are added and the plates are incubated for 4 days. Cell proliferation is determined as above.
FIG. 8 compares T cell immune suppression data of thirteen inventive compounds by comparing their IC50 values in a murine thymocyte stimulated by ConA and IL-2 in vitro model.

[6] = test system: human stromal cells; test: PDGF-stimulated proliferation of human stromal cells; format: cell-based; conditions: 50 ng/ml PDGF-BB; drug one hour prior; FIGS. 15 and 16; read-out: IC50, stromal cell proliferation
Procedure: (§2) This assay is an in vitro model for restenosis and treatment of atherosclerosis and coronary artery disease. Stromal cells were starved in serum-free media for one day and then stimulated with 50 ng/ml PDGF-BB. The drugs were added at the indicated concentrations one hour prior to PDGF stimulation. Tritiated thymidine was added for one day at the time of PDGF stimulation and the cells were harvested and counted by liquid scintillation counting 24 hrs later.
Another assay for measuring activity of the inventive compounds involves determining PDGF (platelet derived growth factor) proliferative response using human-derived stromal cells. […] Two to three days later, the stromal cells are starved in serum-free media. Twenty four hours later, the cells are treated with a stimulating agent, such as PDGF-AA, PDGF-BB or basic FGF (fibroblast growth factor) with or without IL-1α or TNF, and tritiated thymidine. Cell proliferation is determined by liquid scintillation counting.
as §2

[7] = test system: PBMC (peripheral blood mononuclear cells); test: Two-way mixed lymphocyte reaction (MLR), proliferation of PBMC to allogeneic stimulation; format: cell-based, human; conditions: FIGS. 3 and 4
Description: Various in vitro assays can be used to measure effects of the inventive compounds to module immune activity and have antitumor activity using a variety of cellular types. For example, a mixed lymphocyte reaction (MLR) provides a valuable screening tool to determine biological activity of each inventive compound. In the MLR, PBMCs (peripheral blood mononuclear cells) are obtained by drawing whole blood from healthy volunteers in a heparinized container and diluted with an equal volume of hanks balanced salt solution (HBSS). This mixture is layered on a […] density gradient, such as a Ficoll-Hypaque® gradient (specific gravity 1.08), and centrifuged at 1000×g for 25 minutes at room temperature or cooler. PBMC are obtained from a band at a plasma-Ficoll interface, separated and washed at least twice in a saline solution, such as HBSS. Contaminating red cells are lysed, such as by ACK lysis for 10 min at 37° C., and the PBMCs are washed twice in HBSS. The pellet of purified PBMCs is resuspended in complete medium, such as RPMI 1640 plus 20% human inactivated serum. Proliferative response of PBMC to allogeneic stimulation is determined in a two-way MLR performed in a 96-well microliter plate. Briefly, approximately 10^5 test purified PBMC cells in […] complete medium are co-cultured with approximately 10^5 autologous (control culture) or allogeneic (stimulated culture) PBMC cells, wherein the allogeneic cells are from HLA disparate individuals. Varying doses of compounds (drug) are added at the time of addition of cells to the microtiter plate. The cultures are incubated for 6 days at 37° C. in a 5% CO2 atmosphere. At the conclusion of the incubation tritiated thymidine is added (for example, […] of 40 to 60 Ci/mmole) and proliferation determined by liquid scintillation counting.
This example illustrates a mixed lymphocyte reaction assay of inventive compounds by showing the IC50 value of each compound in this assay and a dose response of several compounds to illustrate an IC50 determination.

SMILES	IC50 [1]	RELEASE-SPONT ([2]; Table 4)	AVERAGE % RELEASE ([2]; Table 4)	inhibition at 50 µM ([2]; Table 4)	differential cytotoxicity, transformed vs normal cells [3]	inhibition of yeast growth [4]	% INHIBITION ([2]; Table 4)	% RELEASE ([2]; Table 4)	INCORP ([2]; Table 4)	RELEASE ([2]; Table 4)	RELEASE X2 ([2]; Table 4)	TOTAL ([2]; Table 4)	% INHIBITION ([2]; Table 5)	T cell immune suppressing activity [5]	IC50 [6]	IC50 [7]
C=CCCCCn1c(=O)c2c(ncn2C)n(C)c1=O [CT1539, 1-(5-hexenyl)-3,7-dimethylxanthine]	> 500 µM	5.15%	21.71%	35.8%	equally cytotoxic for both cell types											
CC(C)=CCC[C@H](C)CCCn1c(=O)c2c(ncn2C)n(C)c1=O [CT2536S, 1-(4-(S)-Methyl-8-methylnon-7-enyl)-3,7-dimethylxanthine]	30 µM	0.21%	16.76%	97.4%		strongly inhibited yeast growth										
CC(C)=CCCC(C)CCn1c(=O)c2c(ncn2C)n(C)c1=O (racemic) [CT1596]						enantiomeric selectivity										
CC(C)=CCC[C@@H](C)CCCn1c(=O)c2c(ncn2C)n(C)c1=O [CT2536R, 1-(4-(R)-Methyl-8-methylnon-7-enyl)-3,7-dimethylxanthine]	30 µM	-0.55%	16.00%	107%		strongly inhibited yeast growth										
C=CCCCCCCCn1c(=O)c2c(ncn2COC(=O)C(C)(C)C)n(C)c1=O [CT1411, 1-(8-nonenyl)-3-methyl-7-methylpivaloylxanthine]		0.97%	17.53%				87.89%	16.79% and 18.27%	24627 and 24663	2484 and 2756	4968 and 5512	29595 and 30175	87.89%	potent immune suppressing activity	< 10 µM	
C=CCCCCCCCCCn1c(=O)c2c(ncn2COC(=O)C(C)(C)C)n(C)c1=O [CT1403, 1-(10-undecenyl)-3-methyl-7-methylpivaloylxanthine]		1.26%	17.82%				84.23%	17.37% and 18.27%	23246 and 25691	2443 and 2872	4886 and 5744	28132 and 31435	84.23%		< 10 µM	10 µM
